This is an account of results in patent publication US20230114405A1, “Microemulsion Delivery Systems for A Female Hormone Blend with Alcohol-Soluble Species Including Nonderivatized Hormones” (Quicksilver Scientific, Inc., priority 2019, published 2023).

A short description of data set [1]: Solubility of DHEA in ethanol and MCT oil. Format: physicochemical. An excerpt: An alcohol-soluble species is a species that is insoluble in water and has a greater solubility in ethanol than in medium chain triglyceride (MCT) oils. […] Alcohol-soluble species are preferably pharmacologically active, more preferably are a drug or a supplement, and neither include nor are water. Thus, liquids and solids may exist that technically are soluble in alcohol, but because they also are soluble in water or more or equivalently soluble in MCT oils than in ethanol are not “alcohol-soluble species”.
Solubilized means that the alcohol-soluble species to be delivered is in the solution of the droplet. […] Thus, if either average particle diameters greater than 200 nm or precipitated crystals visible to the naked eye form, the alcohol-soluble species is not solubilized in the solution of the droplet. If an alcohol-soluble species is not solubilized in the solution, it is insoluble in the solution. In many respects, solubility may be thought of as a concentration dependent continuum. For example, the following descriptive terms may be used to express solubility of a solute in a solvent (grams solid/mL of solvent) at 25 degrees Celsius: […]

A short description of data set [2]: Formation of visually clear, shelf-stable MOIW microemulsions with phospholipid and polyethylene glycol derivative. Conditions: used in conjunction with the phospholipid. Format: physicochemical. An excerpt: A shelf-stable microemulsion may be determined in one of two ways. […] Either type of dissociation means that the microemulsion is not shelf-stable.
A visually clear microemulsion has an average particle diameter of 200 nm and less and lacks precipitated solid crystals visible to the naked eye.

Take `C[C@]12CC[C@H](O)CC1=CC[C@@H]1[C@@H]2CC[C@]2(C)C(=O)CC[C@@H]12` [DHEA, dehydroepiandrosterone (3-beta-hydroxyandrosteron-5-en-17-one)]: in data set [1] (MCT oil), the “descriptive solubility level in MCT oil” value is “sparingly soluble” and the “solubility in MCT oil” value is on record as “approximately 10 mg/mL”. In addition, in data set [1] (ethanol), the “descriptive solubility level in ethanol” value is “freely soluble” and the solubility in ethanol entry is recorded as “approximately 150 mg/mL”.
As to polysorbate 20, in data set [2], the “phospholipid to polyethylene glycol derivative ratios resulting in visually clear, shelf-stable microemulsions” value is on record as “did not form visually clear, shelf-stable microemulsions”.
